Paper PMC6920949, “Muscle to Brain Partitioning as Measure of Transporter-Mediated Efflux at the Rat Blood–Brain Barrier and Its Implementation into Compound Optimization in Drug Discovery” (Pharmaceutics, 2019)

What was measured:
[1] = set-up: method as in PMID 21934030; conditions: rat, brain slice method; cited from earlier work
[2] = rat, in vivo
Experimental: (§1) Animal experiments were performed in male rats of different strains (Han Wistar, Sprague Dawley, Lister Hooded, Long-Evans, supplied by commercial breeders, typically Charles River, Sulzfeld, Germany or Janvier Labs, Saint-Berthevin Cedex, France). Only two studies were done in female animals. Typically three animals were used per experiment. […] Compounds were dosed orally, intravenously, subcutaneously, or intraperitoneally. For tissue sampling animals were anaesthetized with Ketamin/Inactin. After dissection of the cisterna magna, approximately 50 µL CSF was collected via a 0.4-mm cannula. Blood was collected from the retroorbital plexus into K3EDTA coated vials (Sarstedt, Nümbrecht, Germany) and plasma was collected by centrifugation for 5 min at approximately 5000 rpm. Animals were exsanguinated via the vena cava. The femoral muscle was prepared. A small piece (approximately 0.2–0.5 g) was excised, rinsed in cold physiological NaCl, and the remaining fat and superficial vessels were removed. For brain isolation, skin and muscle of head and neck were removed. The cranium was opened with a bone trimmer by one central and two lateral incisions. […]
(§2) Prior to bioanalysis plasma samples and dialysates were spiked with internal standard solution and diluted with acetonitrile for protein precipitation. […] Quantification was performed using external calibration.

[3] = Kp,br/mu: brain to skeletal muscle partitioning, tissue distribution study in rats; conditions: rat, brain and skeletal (femoral) muscle
Experimental: as §1, §2

[4] = set-up: method as in PMID 28880093; conditions: dog cerebrum, cerebellum, brain stem; cited from earlier work
[5] = Kp,uu,brain by brain homogenate method; type: in vivo; conditions: brain and plasma (unbound), rat, Table 4, read-out: Kp,uu,brain(hom) (This publication)
Text: Under steady-state conditions, Kp,uu,brain defines the ratio between the unbound drug concentration in brain (Cu,brain), i.e., the interstitial fluid (ISF) and the unbound drug concentration in plasma(Cu,plasma) (Equation (1)). Kp,uu,brain = Cu,brain/Cu,plasma(1) Using microdialysis, the concentrations in brain ISF can be determined. […] Kp,uu,brain = Cu,brain/Cu,plasma = (Cbrain × fu,brain)/(Cplasma × fu,plasma) = Kp,brain × (fu,brain/fu,plasma)(2) where Cplasma and Cbrain are the plasma and brain concentration, respectively. Kp is the partition coefficient of total drug in brain and plasma:Kp,brain = Cbrain/Cplasma(3)
Animal experiments were performed in male rats of different strains (Han Wistar, Sprague Dawley, Lister Hooded, Long-Evans, supplied by commercial breeders, typically Charles River, Sulzfeld, Germany or Janvier Labs, Saint-Berthevin Cedex, France). Only two studies were done in female animals. Typically three animals were used per experiment. […] Compounds were dosed orally, intravenously, subcutaneously, or intraperitoneally. […]
Binding of research compounds to plasma protein and tissue homogenates was determined using the equilibrium dialysis method as described previously [9, 15]. […] Unbound plasma concentration (fu,plasma) was calculated as:fu,plasma = (Cplasma − Cbuffer)/Cplasma,(7) where Cplasma and Cbuffer are the plasma and buffer concentration, respectively.

[6] = compounds without blood-brain barrier efflux; cited from earlier work

## NC(=O)N1c2ccccc2C=Cc2ccccc21 [Carbamazapine]
[1]
  Kp,uu,brain (Literature): 0.771
[2]
  Kp,br/mu (This publication): 1.44

## C=C[C@H]1C[N@@]2CC[C@H]1C[C@@H]2[C@@H](O)c1ccnc2ccc(OC)cc12 [Quinidine]
[3]
  Kp: 0.056
[4]
  effect of up to 5-fold P-gp and BCRP expression differences between brain regions on Kp,brain: did not affect
[5]
  Kp uu: 0.0276

## Cc1nnc2n1-c1sc(CCC(=O)N3CCOCC3)cc1C(c1ccccc1Cl)=NC2 [apafant]
[4]
  effect of up to 5-fold P-gp and BCRP expression differences between brain regions on Kp,brain: did not affect

## Cc1ncc2n1-c1ccc(Cl)cc1C(c1ccccc1F)=NC2 [midazolam]
[6]
  distribution into brain and skeletal muscle: very similar distributions into brain and skeletal muscle
